Measurements reported in the supplement of paper PMC10307832.

Columns and labels:
Test in all cases: relative viability (nuclei count vs DMSO), 5 days (fraction); higher = more cells survive
[1] = compound: C[C@@H](C(=O)N[C@@H](C1CCCCC1)C(=O)N2CCC[C@H]2C(=O)N[C@@H]3[C@@H](CC4=CC=CC=C34)OCC#CC#CCO[C@@H]5CC6=CC=CC=C6[C@@H]5NC(=O)[C@@H]7CCCN7C(=O)[C@H](C8CCCCC8)NC(=O)[C@H](C)NC)NC [AZD5582] + CS(=O)(=O)CCNCc1ccc(-c2ccc3ncnc(Nc4ccc(OCc5cccc(F)c5)c(Cl)c4)c3c2)o1 [Lapatinib] (partner 2 µM)
Method in brief: (§1)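 Each reported value is a median over duplicate plates. It expresses relative viability: treated-well nuclei count divided by vehicle-well nuclei count. Lung cancer cell lines in 1536-well plates were dosed by pin tool a day after seeding, alone with one drug or with a fixed anchor-drug dose plus five library-drug doses (not always all listed) in √10 steps, and nuclei were counted after 5 days.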

[2] = compound: C[C@@H](C(=O)N[C@@H](C1CCCCC1)C(=O)N2CCC[C@H]2C(=O)N[C@@H]3[C@@H](CC4=CC=CC=C34)OCC#CC#CCO[C@@H]5CC6=CC=CC=C6[C@@H]5NC(=O)[C@@H]7CCCN7C(=O)[C@H](C8CCCCC8)NC(=O)[C@H](C)NC)NC [AZD5582] + O=C(c1cc(Cc2n[nH]c(=O)c3ccccc23)ccc1F)N1CCN(C(=O)C2CC2)CC1 [Olaparib] (partner 8 µM)
Method in brief: as §1

[3] = compound: Cn1nnc2c(C(N)=O)ncn2c1=O [Temozolomide] + Cc1cc(Nc2cc(N3CCN(C)CC3)nc(Sc3ccc(NC(=O)C4CC4)cc3)n2)n[nH]1 [Tozasertib] (partner 0.1 µM)
Method in brief: as §1

[4] = compound: Cn1nnc2c(C(N)=O)ncn2c1=O [Temozolomide] + Nc1ncn([C@H]2C[C@H](O)[C@@H](CO)O2)c(=O)n1 [Decitabine] (partner 2 µM)
Method in brief: as §1

Cell Line: HCC-44
- relative viability ([1]; first compound 0.001581 µM): 0.754
- relative viability ([1]; first compound 0.005 µM): 0.916
- relative viability ([1]; first compound 0.01581 µM): 1.11
- relative viability ([1]; first compound 0.05 µM): 0.467
- relative viability ([2]; first compound 0.001581 µM): 0.942
- relative viability ([2]; first compound 0.005 µM): 0.958
- relative viability ([2]; first compound 0.01581 µM): 0.949
- relative viability ([2]; first compound 0.05 µM): 0.903
- relative viability ([3]; first compound 0.2 µM): 0.795
- relative viability ([3]; first compound 0.6325 µM): 0.953
- relative viability ([3]; first compound 2 µM): 1.06
- relative viability ([3]; first compound 6.325 µM): 0.848
- relative viability ([3]; first compound 20 µM): 0.996
- relative viability ([4]; first compound 0.2 µM): 1.04
- relative viability ([4]; first compound 0.6325 µM): 0.991
- relative viability ([4]; first compound 2 µM): 0.963
- relative viability ([4]; first compound 6.325 µM): 0.951
- relative viability ([4]; first compound 20 µM): 0.966

Cell Line: HCC-78
- relative viability ([1]; first compound 0.001581 µM): 0.703
- relative viability ([1]; first compound 0.005 µM): 0.794
- relative viability ([1]; first compound 0.01581 µM): 0.603
- relative viability ([1]; first compound 0.05 µM): 0.198
- relative viability ([2]; first compound 0.001581 µM): 0.869
- relative viability ([2]; first compound 0.005 µM): 0.859
- relative viability ([2]; first compound 0.01581 µM): 0.598
- relative viability ([2]; first compound 0.05 µM): 0.791
- relative viability ([3]; first compound 0.2 µM): 0.282
- relative viability ([3]; first compound 0.6325 µM): 0.487
- relative viability ([3]; first compound 2 µM): 0.497
- relative viability ([3]; first compound 6.325 µM): 0.493
- relative viability ([3]; first compound 20 µM): 0.425
- relative viability ([4]; first compound 0.2 µM): 0.743
- relative viability ([4]; first compound 0.6325 µM): 0.679
- relative viability ([4]; first compound 2 µM): 0.763
- relative viability ([4]; first compound 20 µM): 0.614

Cell Line: HCC-366
- relative viability ([1]; first compound 0.001581 µM): 0.936
- relative viability ([1]; first compound 0.005 µM): 1.05
- relative viability ([1]; first compound 0.01581 µM): 0.961
- relative viability ([1]; first compound 0.05 µM): 1.08
- relative viability ([2]; first compound 0.001581 µM): 0.292
- relative viability ([2]; first compound 0.005 µM): 0.428
- relative viability ([2]; first compound 0.01581 µM): 0.353
- relative viability ([2]; first compound 0.05 µM): 0.44
- relative viability ([3]; first compound 0.2 µM): 0.097
- relative viability ([3]; first compound 0.6325 µM): 0.0983
- relative viability ([3]; first compound 2 µM): 0.148
- relative viability ([3]; first compound 6.325 µM): 0.0779
- relative viability ([3]; first compound 20 µM): 0.15
- relative viability ([4]; first compound 0.2 µM): 0.297
- relative viability ([4]; first compound 0.6325 µM): 0.386
- relative viability ([4]; first compound 2 µM): 0.384
- relative viability ([4]; first compound 6.325 µM): 0.304
- relative viability ([4]; first compound 20 µM): 0.337

Cell Line: HCC-827
- relative viability ([1]; first compound 0.001581 µM): 0.222
- relative viability ([1]; first compound 0.005 µM): 0.183
- relative viability ([1]; first compound 0.01581 µM): 0.179
- relative viability ([1]; first compound 0.05 µM): 0.163
- relative viability ([2]; first compound 0.001581 µM): 0.662
- relative viability ([2]; first compound 0.005 µM): 0.807
- relative viability ([2]; first compound 0.01581 µM): 0.626
- relative viability ([2]; first compound 0.05 µM): 0.68
- relative viability ([3]; first compound 0.2 µM): 0.428
- relative viability ([3]; first compound 0.6325 µM): 0.436
- relative viability ([3]; first compound 2 µM): 0.409
- relative viability ([3]; first compound 6.325 µM): 0.458
- relative viability ([3]; first compound 20 µM): 0.114
- relative viability ([4]; first compound 0.2 µM): 0.228
- relative viability ([4]; first compound 0.6325 µM): 0.357
- relative viability ([4]; first compound 2 µM): 0.339
- relative viability ([4]; first compound 6.325 µM): 0.34
- relative viability ([4]; first compound 20 µM): 0.169

Cell Line: HOP-62
- relative viability ([1]; first compound 0.001581 µM): 0.748
- relative viability ([1]; first compound 0.005 µM): 1.06
- relative viability ([1]; first compound 0.01581 µM): 1.02
- relative viability ([1]; first compound 0.05 µM): 0.958
- relative viability ([2]; first compound 0.001581 µM): 0.234
- relative viability ([2]; first compound 0.005 µM): 0.287
- relative viability ([2]; first compound 0.01581 µM): 0.252
- relative viability ([2]; first compound 0.05 µM): 0.232
- relative viability ([3]; first compound 0.2 µM): 0.534
- relative viability ([3]; first compound 0.6325 µM): 0.418
- relative viability ([3]; first compound 2 µM): 0.367
- relative viability ([3]; first compound 6.325 µM): 0.376
- relative viability ([3]; first compound 20 µM): 0.348
- relative viability ([4]; first compound 0.2 µM): 0.214
- relative viability ([4]; first compound 0.6325 µM): 0.247
- relative viability ([4]; first compound 2 µM): 0.226
- relative viability ([4]; first compound 6.325 µM): 0.19
- relative viability ([4]; first compound 20 µM): 0.188

Cell Line: IA-LM
- relative viability ([1]; first compound 0.001581 µM): 0.623
- relative viability ([1]; first compound 0.005 µM): 0.725
- relative viability ([1]; first compound 0.01581 µM): 0.809
- relative viability ([1]; first compound 0.05 µM): 0.584
- relative viability ([2]; first compound 0.001581 µM): 0.708
- relative viability ([2]; first compound 0.005 µM): 0.586
- relative viability ([2]; first compound 0.01581 µM): 0.649
- relative viability ([2]; first compound 0.05 µM): 0.582

Cell Line: LC-2-ad
- relative viability ([1]; first compound 0.001581 µM): 0.966
- relative viability ([1]; first compound 0.005 µM): 1.07
- relative viability ([1]; first compound 0.01581 µM): 0.888
- relative viability ([1]; first compound 0.05 µM): 0.904
- relative viability ([2]; first compound 0.001581 µM): 0.68
- relative viability ([2]; first compound 0.005 µM): 0.715
- relative viability ([2]; first compound 0.01581 µM): 0.659
- relative viability ([2]; first compound 0.05 µM): 0.805
- relative viability ([3]; first compound 0.2 µM): 0.429
- relative viability ([3]; first compound 0.6325 µM): 0.517
- relative viability ([3]; first compound 2 µM): 0.505
- relative viability ([3]; first compound 6.325 µM): 0.41
- relative viability ([3]; first compound 20 µM): 0.422
- relative viability ([4]; first compound 0.2 µM): 0.795
- relative viability ([4]; first compound 0.6325 µM): 0.766
- relative viability ([4]; first compound 2 µM): 0.775
- relative viability ([4]; first compound 6.325 µM): 0.874
- relative viability ([4]; first compound 20 µM): 0.665

Cell Line: LCLC-97TM1
- relative viability ([1]; first compound 0.005 µM): 0.627
- relative viability ([1]; first compound 0.01581 µM): 0.404
- relative viability ([1]; first compound 0.05 µM): 0.294
- relative viability ([2]; first compound 0.001581 µM): 0.38
- relative viability ([2]; first compound 0.005 µM): 0.319
- relative viability ([2]; first compound 0.01581 µM): 0.366
- relative viability ([2]; first compound 0.05 µM): 0.272
- relative viability ([3]; first compound 0.2 µM): 0.186
- relative viability ([3]; first compound 0.6325 µM): 0.242
- relative viability ([3]; first compound 2 µM): 0.212
- relative viability ([3]; first compound 6.325 µM): 0.184
- relative viability ([3]; first compound 20 µM): 0.191
- relative viability ([4]; first compound 0.2 µM): 0.232
- relative viability ([4]; first compound 0.6325 µM): 0.245
- relative viability ([4]; first compound 2 µM): 0.223
- relative viability ([4]; first compound 6.325 µM): 0.216
- relative viability ([4]; first compound 20 µM): 0.253
